According to the supplement of paper PMC4862054:

Columns and labels:
[1] = system: CAL-148; assay: drug sensitivity score (DSS), CellTox Green (DSS (AUC-based score)); higher = stronger drug effect (viability inhibition or cytotoxicity); extreme values may be limits of the assay; conditions: incubation time: 72 h
Procedure, shortened: (§1)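 Breast cancer cell lines, seeded as 20 µl suspension, were incubated 72 h with compound in 384-well plates at 5 concentrations in 10-fold steps over a 10,000-fold range set for each compound. Fluorescence from CellTox Green was read at 485/520 nm before CellTiter-Glo luminescence, which was read after 10 min at room temperature. Every plate was normalised to 0.1 % DMSO and a positive kill control, and the drug sensitivity score was taken from the area under the fitted dose-response curve.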

[2] = system: HCC1143; assay: as above; conditions: incubation time: 72 h
Procedure, shortened: as §1

[3] = system: HDQ-P1; assay: as above; conditions: incubation time: 72 h
Procedure, shortened: as §1

[4] = system: MFM-223; assay: as above; conditions: incubation time: 72 h
Procedure, shortened: as §1

[5] = system: BT-474; conditions: 72 h
Procedure, shortened: (§2)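 Per-plate normalisation used 0.1 % DMSO and a positive kill control. Breast cancer cell lines (20 µl suspension) were seeded into 384-well plates containing compound at 5 concentrations in 10-fold steps across a compound-specific 10,000-fold range, incubated for 72 h, and read first for CellTox Green fluorescence (485/520 nm), then for CellTiter-Glo luminescence. EC50 was fitted from the dose-response curves and censored at the top concentration.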

[6] = system: BT-549; conditions: 72 h
Procedure, shortened: as §2

[7] = system: CAL-148; conditions: 72 h
Procedure, shortened: as §2

[8] = system: CAL-51; conditions: 72 h
Procedure, shortened: as §2

[9] = system: CAL-85-1; conditions: 72 h
Procedure, shortened: as §2

[10] = system: DU-4475; conditions: 72 h
Procedure, shortened: as §2

[11] = system: HCC1599; conditions: 72 h
Procedure, shortened: as §2

[12] = system: HCC1937; conditions: 72 h
Procedure, shortened: as §2

[13] = system: HDQ-P1; conditions: 72 h
Procedure, shortened: as §2

[14] = system: Hs578T; conditions: 72 h
Procedure, shortened: as §2

[15] = system: MDA-MB-231; conditions: 72 h
Procedure, shortened: as §2

[16] = system: MDA-MB-436; conditions: 72 h
Procedure, shortened: as §2

[17] = system: MDA-MB-453; conditions: 72 h
Procedure, shortened: as §2

[18] = system: MFM-223; conditions: 72 h
Procedure, shortened: as §2

[19] = system: SK-BR-3; conditions: 72 h
Procedure, shortened: as §2

[20] = system: CAL-120; conditions: 72 h
Procedure, shortened: as §2

[21] = system: MCF-10A; conditions: 72 h
Procedure, shortened: as §2

[22] = system: HCC1143; conditions: 72 h
Procedure, shortened: as §2

| SMILES | drug sensitivity score [1] | drug sensitivity score [2] | drug sensitivity score [3] | drug sensitivity score [4] | EC50, CellTiter-Glo [5] [µM] | EC50, CellTiter-Glo [6] [µM] | EC50, CellTiter-Glo [7] [µM] | EC50, CellTiter-Glo [8] [µM] | EC50, CellTiter-Glo [9] [µM] | EC50, CellTiter-Glo [10] [µM] | EC50, CellTiter-Glo [11] [µM] | EC50, CellTiter-Glo [12] [µM] | EC50, CellTiter-Glo [13] [µM] | EC50, CellTiter-Glo [14] [µM] | EC50, CellTiter-Glo [15] [µM] | EC50, CellTiter-Glo [16] [µM] | EC50, CellTiter-Glo [17] [µM] | EC50, CellTiter-Glo [18] [µM] | EC50, CellTiter-Glo [19] [µM] | EC50, CellTiter-Glo [20] [µM] | EC50, CellTiter-Glo [21] [µM] | EC50, CellTiter-Glo [22] [µM] |
| --- | --- | --- | --- | --- | --- | --- | --- | --- | --- | --- | --- | --- | --- | --- | --- | --- | --- | --- | --- | --- | --- | --- |
| Oc1ccc2c(c1)CC[C@H](c1ccccc1)[C@@H]2c1ccc(OCCN2CCCC2)cc1 [Lasofoxifene] | 0 | 0 | 0 | 0 |  |  |  |  |  |  |  |  |  |  |  |  |  |  |  |  |  |  |
| c1ccc2c(CCNc3ccc(Nc4ccncc4)cc3)c[nH]c2c1 [Serdemetan] | 6.44 | 0 | 0 | 1.92 | 4.65 | 1.73 | 2.49 | 0.315 | 8.46 | 2.37 | 5.24 | > 10 | 1.23 | 9.71 | 6.23 | 8.14 | 8.86 | > 10 | 2.78 |  |  |  |
| CNC(=O)c1cc(Oc2ccc(NC(=O)Nc3ccc(Cl)c(C(F)(F)F)c3)c(F)c2)ccn1 [Regorafenib] | 0 | 0 | 0 | 0 | 3.5 | 9.05 | 4.59 | 0.216 |  | 2.97 | 8.02 | > 10 | 5.11 | 2.29 | 4.56 | 6.38 | 2.89 | 1.15 | > 10 | 9.95 | 1.88 |  |
| O=C(/C=C/c1cccc(S(=O)(=O)Nc2ccccc2)c1)NO [Belinostat] | 8.43 | 0 | 0 | 4.75 | 0.458 | 1.01 | 0.37 | 0.0292 | 0.738 | 0.358 | 0.826 | 2.18 | 2.83 | 0.989 | 0.564 | 1.25 | 0.158 | 0.264 | 0.229 | 0.634 | 1.15 | 0.803 |
| Cc1cc(Nc2cc(CN3CCOCC3)c3nc(C)c(Cc4ccc(Cl)cc4F)n3n2)n[nH]1 [Gandotinib] | 0 | 0 | 0 | 0 | 1.11 | 2.51 |  | 0.775 | 0.955 | 7.86 |  | 2.53 | 1.93 | 2.66 | 1.3 | 1.51 |  | 0.42 | 4.03 | 5.01 | 3.14 | 1.62 |
| COc1cc(OC2CCN(C)CC2)ccc1Nc1ncc2c(n1)n(C1CCCC1)c(=O)n2C [AZ 3146] | 0 | 0 | 0 | 0 | 2.62 |  |  | 1.01 | 3.78 |  | 8.24 |  |  |  |  |  |  |  | 0.97 |  | 9.26 |  |
| CNC(=O)c1ccc(N2C(=S)N(c3ccc(C#N)c(C(F)(F)F)c3)C(=O)C23CCC3)cc1F [RD162] | 0 |  | 0 | 0 | > 10 |  |  |  |  |  |  |  |  |  |  |  |  |  |  |  |  |  |
| CN(C)CCOc1ccc(/C(=C(/CCCl)c2ccccc2)c2ccccc2)cc1 [Toremifene] | 0 | 2.33 | 0 | 0 | 3.62 |  |  |  |  |  |  | 9.75 |  |  |  |  |  | 7.34 |  |  | 1.71 |  |
| Cc1[nH]c2ccccc2c1CCNCc1ccc(/C=C/C(=O)NO)cc1 [Panobinostat] | 20.9 | 6.53 | 3.86 | 6.53 | 0.0318 | 0.0813 | 0.021 | 0.0226 | 0.0334 | 0.0183 | 0.0464 | 0.168 | 0.115 | 0.0432 | 0.0243 | 0.0582 | 0.00995 | 0.0276 | 0.0137 | 0.0623 | 0.0891 | 0.0335 |
| CC(C)C[C@@H](C(=O)N[C@H](C(=O)OC1CCCC1)c1ccccc1)[C@H](O)C(=O)NO [Tosedostat] | 0 | 1.52 | 10.1 | 0 | 0.0932 | 0.125 | 0.327 | 0.854 | 0.182 |  |  | 0.0813 | 0.63 | 8.27 | 0.366 | 0.335 | 0.0558 | 0.528 |  | 0.127 |  | 0.405 |
| CCn1c(-c2nonc2N)nc2cnc(Oc3cccc(NC(=O)c4ccc(OCCN5CCOCC5)cc4)c3)cc21 | 0 |  | 0 | 0 | 0.206 | 4.29 | 1.24 | 4.64 |  | > 10 |  |  | 2.17 | 2.05 | 1.5 | 3.67 |  |  | 1.88 | 0.512 | 0.0378 |  |
| CCc1c2c(nc3ccc(OC(=O)N4CCC(N5CCCCC5)CC4)cc13)-c1cc3c(c(=O)n1C2)COC(=O)[C@]3(O)CC [Irinotecan] | 11.8 | 0 | 0 | 0 | 2.55 | 9.39 | 1.45 | 3.29 |  | 1.84 | 6.85 |  |  |  |  | 1.16 |  |  | 1.18 | 2.59 | 4.29 |  |
| COC(=O)c1ccc2c(c1)NC(=O)/C2=C(\Nc1ccc(N(C)C(=O)CN2CCN(C)CC2)cc1)c1ccccc1 [Nintedanib] | 0 | 0 | 0 | 0 | 3.55 | 1.91 |  | 1.88 |  |  |  | 4.83 | 1.08 |  | 2.58 | 5.34 | 3.11 | 0.408 |  | 2.38 | 0.584 | 4.78 |
